Experiment: in vitro
Conditions: human, hela cells, % viability

Going from CCCS(=O)(=O)n1c(=O)n(CC(=O)c2ccc(N(CC)CC)cc2)c2ccccc21 [CBK106504] to N=c1n(CC(=O)O)c2ccccc2n1Cc1ccccc1Cl [CBK262917B], the viability at 28.5 h, 10 µM falls from 105% to 90.3%.

Going from CC(C)Nc1cncc(OCCCN(C)C)n1 [CBK115600] to CCC(CO)Nc1cncc(-c2cc(C(C)C)ccc2OC)n1 (stereo not drawn) [CBK065743], the viability at 28.5 h, 10 µM falls from 105% to 91.7%.

Going from COc1ccc(C(=O)Nc2ccc(CC(=O)O)cc2)cc1 [CBK269736] to CC(=O)Nc1ccc(C(=O)Nc2ccc(S(=O)(=O)N3CCOCC3)cc2)cc1 [CBK264763], the viability at 28.5 h, 10 µM rises from 95% to 95.1%.

Going from O=C(CSc1nnc(CN2CCOCC2)n1-c1ccc(Cl)cc1)N1CCN(c2ccccc2)CC1 [CBK269088] to O=S(=O)(N1CCOCC1)N1CCN(CC(O)COc2ccc(-c3ccccc3)cc2)CC1 (stereo not drawn) [CBK269301], the viability at 28.5 h, 10 µM rises from 96.9% to 106%.

First: O=C(CSc1nc2[nH]ncc2c(=O)n1-c1ccccc1)Nc1ccc(F)c(Cl)c1 [CBK266453]
Second: CC(C)(C)c1ccc(C(=O)CSCC(=O)Nc2ccc3ccccc3c2)cc1 [CBK268394]
The viability at 28.5 h, 10 µM of the first is higher: 97.6% for the first, 85.2% for the second.

Compared with CS(=O)(=O)N1CCN(c2ccc(NC(=O)c3ccc(-c4cccc([N+](=O)[O-])c4)o3)cc2)CC1 [CBK268602], O=C(COc1ccc(-c2ccccc2)cc1)N1CCN(S(=O)(=O)c2ccc([N+](=O)[O-])cc2)CC1 [CBK264297] is higher in viability at 28.5 h, 10 µM: 98.6% for the first, 106% for the second.

Going from O=C(O)[C@@H]1CCCN1C(=O)C1CCC(Cn2nnc3ccccc3c2=O)CC1 (stereo partly drawn) [CBK286658] to Cn1ccnc1CN1CCC2(CC1)CC(C(=O)O)N(C(=O)C1CC1)C2 (stereo not drawn) [CBK306986], the viability at 28.5 h, 10 µM falls from 88.6% to 88.2%.

Compared with Nc1nc(N)c(Cc2ccc(Cl)cc2Cl)c(N)n1 [CBK009425], CC(C)(CN)CN(Cc1ccc(Cl)cc1Cl)C(=O)NCCc1c[nH]c2ccccc12 [CBK000460C] is lower in viability at 28.5 h, 10 µM: 94.7% for the first, 89.4% for the second.

First: Cc1nn(C)c(C)c1CN(C)C(=O)CCC(C)N1CCCC1 (stereo not drawn) [CBK282001]
Second: CCCCN(C)c1c(CC)nc2ccc(C(=O)NCCN3CCCC3)cn12 [CBK145440]
The viability at 28.5 h, 10 µM of the first is higher: 101% for the first, 96.2% for the second.

Going from N=c1n(CCN2CCCC2)c2ccccc2n1CC(O)c1ccc(Cl)c(Cl)c1 (stereo not drawn) [CBK263448C] to CC(=O)c1c(C)nn2c3ccccc3n(CCN3CCOCC3)c12 [CBK262709C], the viability at 28.5 h, 10 µM rises from 83.6% to 115%.

Compared with Cc1ccc(CNC(=O)Cn2nnc(-c3ccc(CN4CCCC(C(F)(F)F)C4)cc3)n2)cc1 (stereo not drawn) [CBK144562C], CCOC(=O)c1cnn(C2CCCN(Cc3ccsc3)C2)c1 (stereo not drawn) [CBK305112] is lower in viability at 28.5 h, 10 µM: 109% for the first, 94.9% for the second.

Going from COc1ccc(C(=O)Nc2ccc3oc(-c4cccc(C)c4)nc3c2)cc1Br [CBK261944] to O=C(NC(=S)Nc1ccc2oc(-c3cncc(Br)c3)nc2c1)c1cc([N+](=O)[O-])ccc1N1CCOCC1 [CBK268864], the viability at 28.5 h, 10 µM rises from 100% to 118%.

Compared with CS(=O)(=O)c1ccc(-c2cccc(COC3CCN(C(=O)Cc4cccc5ccccc45)CC3)c2)cc1 [CBK149510], CS(=O)(=O)c1ccc(-c2nc(N)cc3ccccc23)cc1 [CBK085724] is higher in viability at 28.5 h, 10 µM: 90.6% for the first, 96.1% for the second.

Going from O=C(O)COCC(=O)NC12CC3CC(CC(C3)C1)C2 [CBK287065] to O=C(NCC1(CCO)CC1)c1c[nH]nc1-c1cc2ccccc2o1 [CBK306163], the viability at 28.5 h, 10 µM falls from 97.9% to 94.5%.

Going from Cc1cc(C)n(CC2CCCCN2C(=O)COc2cccnc2)n1 (stereo not drawn) [CBK304040] to O=C(CN1CCC(c2cncc(-c3cccc(C(F)(F)F)c3)n2)CC1)N1CCCC1 [CBK286152], the viability at 28.5 h, 10 µM falls from 105% to 94.3%.

Compared with COc1ccc2nc(Nc3nc(=O)cc(CSc4nc5ccccc5s4)[nH]3)nc(C)c2c1 [CBK264854], COc1cccc(CNC(=O)C2CCN(c3nc4c(-c5cccc(C)c5)csc4c(=O)[nH]3)CC2)c1 [CBK215603] is lower in viability at 28.5 h, 10 µM: 110% for the first, 84.9% for the second.

Compared with Cc1cc(CN(C)Cc2cnn(-c3ccc(Cl)cc3)c2)n[nH]1 [CBK281912], COCC(C)NCc1cc(-c2ccc(Cl)cc2)c[nH]c1=O (stereo not drawn) [CBK284726] is lower in viability at 28.5 h, 10 µM: 99.3% for the first, 79% for the second.

First: COc1ccccc1-c1nccnc1N[C@H](C)c1ccccc1 [CBK038083]
Second: COc1ccc(C(=O)C(OC(=O)c2cc(O)nc3ccccc23)c2ccccc2)cc1 (stereo not drawn) [CBK264083]
The viability at 28.5 h, 10 µM of the first is higher: 107% for the first, 97.1% for the second.

Going from Nc1ccc(-c2cncc(NCc3ccccc3)n2)cc1 [CBK065578] to CCOc1ccccc1C(=O)Nc1cnc(-c2cccc(C)c2)c(-c2ccc(N)cc2)n1 [CBK036783], the viability at 28.5 h, 10 µM falls from 109% to 107%.

Going from CS(=O)(=O)N1CC2(CCN(Cc3ccccc3)CC2)c2ccccc21 [CBK084003] to Cc1nc2cccnc2n1C1CCN(C(=O)NCc2ccccc2)CC1 [CBK282291], the viability at 28.5 h, 10 µM falls from 89.9% to 87.5%.

Compared with Cc1ccc(OCCSc2nnc(N)[nH]2)cc1 [CBK269334], Cc1ccc(-c2ccc(CCC(=O)O)n2CC(=O)O)cc1 [CBK286922] is lower in viability at 28.5 h, 10 µM: 98.9% for the first, 94.8% for the second.

Compared with O=C(/C=C/c1c(Cl)cccc1Cl)Nc1ccc(S(=O)(=O)Nc2ncccn2)cc1 [CBK265490], O=C(O)c1[nH]c2ccccc2c1NS(=O)(=O)c1ccc(Br)cc1 [CBK049878] is lower in viability at 28.5 h, 10 µM: 98.8% for the first, 61.1% for the second.

First: O=C(CCC1COc2ccccc2O1)Nc1ccc(C(=O)O)cc1 (stereo not drawn) [CBK269856]
Second: N#Cc1cccc(NC(=O)CN2CCN(C(=O)C3COc4ccccc4O3)CC2)c1 (stereo not drawn) [CBK074779]
The viability at 28.5 h, 10 µM of the first is lower: 89.7% for the first, 93.5% for the second.

First: Cc1ncc(CN(C)C(=O)Nc2cccc(C(=O)N3CCOCC3)c2)s1 [CBK305984]
Second: COCCNC(=O)c1cc(-c2cccc(C(=O)N(C)C)c2)cnc1N1CCOCC1 [CBK076464]
The viability at 28.5 h, 10 µM of the first is lower: 92.2% for the first, 97.7% for the second.

Going from CN(Cc1ccc(O)cc1)C(=O)NC1CCCc2c1cnn2CCO (stereo not drawn) [CBK305354] to Cc1ccc(-c2cc(CC3(C(=O)N(C)C)CCCN(C)C3)on2)cc1 (stereo not drawn) [CBK281695], the viability at 28.5 h, 10 µM rises from 86.3% to 89.3%.

Going from CN1C(=O)CC2(C1=O)C(=O)N(Cc1ccc3ccccc3n1)c1ccc(Cl)cc12 (stereo not drawn) [CBK075494] to COc1ccc2c(c1)C1(CC(=O)N(C)C1=O)C(=O)N2CCCC(=O)O (stereo not drawn) [CBK076109], the viability at 28.5 h, 10 µM falls from 102% to 77.3%.

Compared with NS(=O)(=O)c1ccc(NC(=O)CSc2ccc([N+](=O)[O-])cn2)cc1 [CBK269002], O=[N+]([O-])c1ccc(Sc2ccccc2C2=NCCCN2)nc1 [CBK006747C] is higher in viability at 28.5 h, 10 µM: 95% for the first, 101% for the second.

Going from CN(C)c1ccc(-c2nccnc2NS(=O)(=O)c2cccs2)cc1 [CBK050804] to COc1ccc(S(=O)(=O)NC(C)C(=O)NCc2ccncc2)cc1 (stereo not drawn) [CBK269441], the viability at 28.5 h, 10 µM rises from 90.5% to 107%.

First: Fc1cccc(Nc2nc(C3CCNCC3)c3ccccn23)c1 [CBK281522]
Second: CC(C)C(=O)N1CCC(c2nc3ccc(F)cc3cc2N)CC1 [CBK284656]
The viability at 28.5 h, 10 µM of the first is higher: 107% for the first, 81.5% for the second.

Going from O=C(CN1C(=O)S/C(=C\c2ccc(OCc3ccccc3F)cc2)C1=O)c1ccc(Cl)cc1 [CBK264632] to COc1ccc(CC(=O)N2CC[C@H]3NC(=O)N(c4ccccc4)C(=O)[C@H]32)cc1 [CBK289278], the viability at 28.5 h, 10 µM falls from 97.6% to 92.7%.

Going from CCOC(=O)c1nc(N)oc1C [CBK056636] to CCOC(=O)CN1N=C(C)C(Cc2c(Cl)cccc2Cl)(OC)C1=O (stereo not drawn) [CBK112646], the viability at 28.5 h, 10 µM rises from 85.3% to 98.1%.

First: Nc1ncc(-c2cncnc2)nc1-c1ccc(CCC(=O)O)cc1 [CBK064120]
Second: Cn1cc(-c2ncc(OCCn3cccc3)nc2N)cn1 [CBK145170]
The viability at 28.5 h, 10 µM of the first is lower: 102% for the first, 107% for the second.

Going from Nc1ccccc1Sc1ccccn1 [CBK085854] to O=C(CSc1ncccc1C(=O)O)c1ccccc1 [CBK273178], the viability at 28.5 h, 10 µM falls from 103% to 94.1%.

First: CCCCN(C)S(=O)(=O)c1ccc(C(C)(C)CC)cc1 [CBK044836]
Second: COc1ccc(C)cc1S(=O)(=O)N(CC(=O)O)c1ccc(Cl)c(Cl)c1 [CBK269095]
The viability at 28.5 h, 10 µM of the first is lower: 89.9% for the first, 104% for the second.

Compared with O=C(c1ccncc1)C12CN3CN(CN(C3)C1)C2 [CBK261451], CN(CCN1CCCCC1)C(=O)C1(c2ccc(F)cc2)CC1 [CBK282178] is lower in viability at 28.5 h, 10 µM: 97.6% for the first, 95.4% for the second.

Going from CCN(CC)C(=O)c1sc(NC(=O)c2cc(-c3ccncc3)nc3c(C)cccc23)c(C#N)c1C [CBK267771] to CCc1cccc(-n2nc(C)c3c2NC(=O)CC3C(=O)c2ccc(CC)s2)c1 (stereo not drawn) [CBK294435], the viability at 28.5 h, 10 µM rises from 93.6% to 113%.

First: Cc1n[nH]c(C)c1-c1ccc2c(cnn2C)c1 [CBK307314]
Second: Cn1c(=O)c2c(O)cc(=O)n(Cc3ccccc3)c2n(C)c1=O [CBK291245]
The viability at 28.5 h, 10 µM of the first is lower: 70.3% for the first, 81.5% for the second.

Compared with CS(=O)(=O)c1cc(Br)cc(C(=O)NCCNc2cnccn2)c1F [CBK305731], Cc1nc(N2CCN(C)CC2)ncc1C(=O)NCCSc1cnn[nH]1 [CBK306623] is higher in viability at 28.5 h, 10 µM: 85.8% for the first, 88.2% for the second.

Compared with COC(=O)[C@@H]1Cc2ncn(C(C)C)c2CN1S(=O)(=O)c1ccc(C#N)cc1 [CBK288986], CC1CCc2nc(NC(=O)C3CN(S(=O)(=O)c4ccc(F)cc4)C3)sc2C1 (stereo not drawn) [CBK286004] is higher in viability at 28.5 h, 10 µM: 84% for the first, 110% for the second.

Compared with COc1cc(/C=N/NC(N)=O)ccc1OC(=O)c1sc2ccccc2c1Cl [CBK262265], COc1cc(CNCc2ccco2)ccc1OCC(N)=O [CBK270204C] is higher in viability at 28.5 h, 10 µM: 85% for the first, 105% for the second.

Going from O=c1n(-c2cccc(C(F)(F)F)c2)ccn1S(=O)(=O)c1ccc(Cl)c(Cl)c1 [CBK106579] to O=C1c2ccc(Oc3ccc4c(c3)C(=O)N(c3ccccn3)C4=O)cc2C(=O)N1c1ccccn1 [CBK261202], the viability at 28.5 h, 10 µM rises from 96.7% to 99.3%.

Compared with COc1cc(C2NC(=S)NC(c3ccccc3)=C2C(=O)c2ccccc2)cc(I)c1OCCO (stereo not drawn) [CBK267485], O=C(c1c[nH]c2ccccc12)C(O)C(c1ccccc1)N1CCOCC1 (stereo not drawn) [CBK267802] is higher in viability at 28.5 h, 10 µM: 86.7% for the first, 95.4% for the second.

First: O=P(O)(CN1CCCCCC1)CN1CCCCCC1 [CBK262311]
Second: O=C(Cn1nnc2ccccc2c1=O)NC(Cc1ccccc1)c1ccccc1 (stereo not drawn) [CBK296933]
The viability at 28.5 h, 10 µM of the first is lower: 92.1% for the first, 96.6% for the second.

Same assay, conditions: human, hela cells, % viability, bulk resorufin, single well

Compound COc1cc(-c2ccc3c(c2)OC2(CCNCC2)O3)ccn1 [CBK091454] has a viability at 28.5 h, 10 µM of 106%.
